# Laboratory results published in patent publication US8071535B2, “Guanidinium derivatives for improved cellular transport” (The Regents of the University of California, priority 2003, dated 2011).
# Marks after values point to notes of the source that are not given here.
# Legend:
# 10T½ cells [1] = experiment: Competition experiment: uptake of BODIPY-Cys(Arg)9 in presence of unlabeled guanidino-neomycin B (6), FACS; format: cell-based, mouse
# Procedure: (§1) Compounds 1-5 identified in Table 1, below (0.5-1 μM), were added to each dish and incubated at 37° C./8% CO2 for 0.5-1 hr. Cells were then washed once in PBS, trypsinized with 500 μl ATV solution (Gibco) for 3 minutes, pelleted in a fixed angle centrifuge for 5 minutes at 5,000×G, then brought up in 1 mL PBS. Each sample was quickly (within 5 minutes) analyzed on a FACS VantageSE cell sorter (Becton-Dickinson) using the 488 nm argon/krypton laser line and a 530 nm band pass emission filter. 2,000-10,000 cells were counted per sample.
# (§2) Examples of FACS histograms are presented in FIG. 3, which illustrates the fluorescence intensity versus cell count for 10,000 individual 10T½ cells following a 1 hour incubation with 0.5 μM of: (A) tobra-BODIPY (Red) and guanidine-tobra-BODIPY (White); (B) neo-BODIPY (Red) and guanidine-neo-BODIPY (White); (C) BODIPY-Cys(Arg)9 (Red), or guanidine-neo-BODIPY (White); and (D) uptake of BODIPY-Cys(Arg)9 inhibited by guanidine-neomycin B (6) at 0 μM (Red), 10 μM (Black), 200 μM (Green).
# [2] = system: Rev-Response-Element (RRE); conditions: in words; cited from earlier work
# 10T½ cells [3] = experiment: Cellular uptake by FACS, 10T½ cells; format: cell-based, mouse; conditions: for Enhancement of cellular uptake upon guanidinylation: relative to autofluorescence, guanidinoglycoside-BODIPY vs aminoglycoside-BODIPY; for Mean Fluorescence Intensities of Treated Cells According to FACS, 10T1/2: 0.5 μM of each compound for 1 hr, average intensity of 10,000 individual cells; for Cellular uptake / transport efficiency compared to poly-Arg peptide BODIPY-Cys(Arg)9 (5) / Cellular uptake (in words): FACS; for Cellular uptake / transport efficiency compared to poly-Arg peptide BODIPY-Cys(Arg)9 (5): in words; for Cellular uptake (in words): slightly above the autofluorescence of the cell itself
# Procedure: (§3) 10T½ cells, an adherent non-transformed mouse fibroblast cell line, were purchased from ATCC and used before their 20th passage. HeLa cells, a common human cancer cell line, were a gift from Dr. Susan S. Taylor. Both cell lines were cultured in Dulbecco's modified eagle medium containing 10% fetal bovine serum at 37° C. in an 8% CO2 environment. For each experiment, cells were seeded onto 4 cm tissue culture plates (Nunc) and allowed to grow overnight to […].
# as §1, §2
# (§4) In a typical experiment, cell cultures were treated with 0.5-5 μM of each compound for 0.5-1 hr, washed twice with buffer, cleaved with trypsin, and quantified for fluorescence at 530 nm.
# HeLa cells [4] = experiment: Cellular uptake by FACS, HeLa cells; format: cell-based, human; conditions: 1 μM of each compound for 0.5 hr; average intensity of 2,000 individual cells; about 10-fold higher instrumental gain than 10T1/2
# Procedure: as §3, §1, §4
# HeLa cells [5] = experiment: Scanning confocal fluorescence microscopy, cellular localization; format: cell-based, human; conditions: confocal cross sections of living cells; 5 μM, 30 minute treatment
# Procedure: The uptake of BODIPY-containing glycosides by two different eukaryotic cell lines was also studied using fluorescence microscopy.
# as §4
# (A) and (B) show cross-sectional images of two individual HeLa cells in solution following a 30 minute treatment with 5 μM of guanidine-neo-BODIPY and cleavage with trypsin.
# Microscopy experiments have been conducted using both fluorescein-labeled and BODIPY-labeled guanidinoglycosides. The relative intensities of individual cells, following treatment with either fluorescent aminoglycosides or guanidinoglycosides are consistent with the trends from FACS experiments.
molecule,measurement,setting,value
"NC(N)=NC[C@@H]1O[C@H](O[C@H]2[C@@H](O)[C@H](O[C@@H]3[C@H](O)[C@@H](N=C(N)N)C[C@@H](N=C(N)N)[C@H]3O[C@H]3O[C@H](CN=C(N)N)[C@@H](O)[C@H](O)[C@H]3N=C(N)N)O[C@@H]2CO)[C@H](N=C(N)N)[C@@H](O)[C@@H]1O [guanidine-neomycin B (6, guanidino-neomycin B]",Inhibition of the transport of BODIPY-Cys(Arg)9 into cells,"10T½ cells [1]; FACS, unlabeled competitor 10-200 μM, in words",effectively inhibits
same,Affinity to the RRE,[2],substantial affinity
"NC[C@@H]1O[C@H](O[C@H]2[C@@H](O)[C@H](O[C@@H]3[C@@H](O)[C@H](N)C[C@H](N)[C@H]3O[C@H]3O[C@H](CN)[C@@H](O)[C@H](O)[C@H]3N)O[C@@H]2CO)[C@H](N)[C@@H](O)[C@@H]1O [neomycin B, reference compound]",Enhancement of cellular uptake upon guanidinylation,10T½ cells [3],approximately 20 fold
"NC[C@H]1O[C@H](O[C@H]2[C@H](O)[C@@H](O[C@H]3O[C@H](CO)[C@@H](O)[C@H](N)[C@H]3O)[C@H](N)C[C@@H]2N)[C@H](N)C[C@@H]1O [tobramycin, reference compound]",Enhancement of cellular uptake upon guanidinylation,10T½ cells [3],approximately 10 fold
"BODIPY-Cys(Arg)9 hydrochloride (CRRRRRRRRR; N-acetyl, C-amide, BODIPY on Cys) [BODIPY-Cys (Arg)9 (5), poly-Arg transduction peptide ace-…-am labelled with BODIPY on Cys]","Mean Fluorescence Intensities of Treated Cells According to FACS, 10T1/2",10T½ cells [3],280
same,"Mean Fluorescence Intensities of Treated Cells According to FACS, HeLa",HeLa cells [4],"2,000"
same,"Mean Fluorescence Intensity, 10T1/2, in presence of 10 μM (6)","10T½ cells [1]; 0.5 μM (5) + 10 μM guanidino-neomycin B (6), 1 hr",110
same,"Mean Fluorescence Intensity, 10T1/2, in presence of 50 μM (6)","10T½ cells [1]; 0.5 μM (5) + 50 μM guanidino-neomycin B (6), 1 hr",90
same,"Mean Fluorescence Intensity, 10T1/2, in presence of 200 μM (6)","10T½ cells [1]; 0.5 μM (5) + 200 μM guanidino-neomycin B (6), 1 hr",70
guainidino-tobra-BODIPY hydrochloride [Guanidino-Tobra-BODIPY (2)],"Mean Fluorescence Intensities of Treated Cells According to FACS, 10T1/2",10T½ cells [3],240
same,Cellular uptake / transport efficiency compared to poly-Arg peptide BODIPY-Cys(Arg)9 (5),10T½ cells [3],approximately the same transport efficiency
same,"Mean Fluorescence Intensities of Treated Cells According to FACS, HeLa",HeLa cells [4],"2,100"
guanidino-Neo-BODIPY hydrochloride [Guanidino-Neo-BODIPY (4)],"Mean Fluorescence Intensities of Treated Cells According to FACS, 10T1/2",10T½ cells [3],430
same,Cellular uptake / transport efficiency compared to poly-Arg peptide BODIPY-Cys(Arg)9 (5),10T½ cells [3],better cellular uptake
same,"Mean Fluorescence Intensities of Treated Cells According to FACS, HeLa",HeLa cells [4],"7,900"
same,Cellular localization,HeLa cells [5],two distinct types of cellular localization
guanidino-tobramycin,Affinity to the RRE,[2],substantial affinity
neo-BODIPY hydrochloride [Neo-BODIPY (3)],"Mean Fluorescence Intensities of Treated Cells According to FACS, 10T1/2",10T½ cells [3],60
same,Cellular uptake (in words),10T½ cells [3],poor cellular uptakes
same,"Mean Fluorescence Intensities of Treated Cells According to FACS, HeLa",HeLa cells [4],"~1,400^(e)"
tobra-BODIPY hydrochloride [Tobra-BODIPY (1)],"Mean Fluorescence Intensities of Treated Cells According to FACS, 10T1/2",10T½ cells [3],60
same,Cellular uptake (in words),10T½ cells [3],poor cellular uptakes
same,"Mean Fluorescence Intensities of Treated Cells According to FACS, HeLa",HeLa cells [4],"1,000"
